Results taken from patent US20090062369A1, “USE OF SECRETORY PHOSPHOLIPASE A2 (SPLA2) INHIBITORS TO DECREASE SPLA2 LEVELS” (priority 2007, published 2009).

Tested on: serum sPLA2
Assay: Effect of twice-a-day oral A-002 on serum sPLA2 levels in subjects with stable coronary artery disease (Example 6)
Assay type: in vivo, human
Procedure: The protocol for preparing standard curve, test, and quality control samples for use in the assay disclosed herein is set forth in Example 5. Samples are prepared according to this protocol, then loaded in duplicate onto a plate (Cayman catalog no. 485002 or equivalent) that has been pre-coated with a monoclonal sPLA2 antibody (“capture antibody”) that specifically binds sPLA2. In certain embodiments, the capture antibody may interact with a specific form of sPLA2, such as for example sPLA2 type IIA.
sPLA2 acetylcholinesterase:Fab′ conjugate (AChE:Fab′) (“conjugate”) (Cayman catalog no. 485000 or equivalent) is reconstituted in EIA buffer (Cayman catalog no. 400060 or equivalent). Cayman EIA buffer is 1M phosphate, pH 7.0, 1% BSA, 4M NaCl, 10 mM EDTA, and 0.1% sodium azide. Reconstituted conjugate is added to each well of the plate. The conjugate binds a different sPLA2 epitope than the capture antibody, allowing the capture antibody and the conjugate to form a “sandwich” that is immobilized on the plate. Excess reagents are washed away, and the plate is covered and incubated overnight at 2-8° C.
Prior to development, the wells are washed five to six times with wash buffer (Cayman catalog no. 400062 or equivalent). To develop the plate, Ellman's Reagent (Cayman catalog no. 400050 or equivalent) is reconstituted in water and added to each well according to manufacturer instructions. The reconstituted Ellman's Reagent must be used the same day it is prepared because it is unstable. Ellman's Reagent contains an AChE substrate. Specifically, Ellman's Reagent contains acetylthiocholine and 5,5′-dithio-bis-(2-nitrobenzoic acid). Hydrolysis of acetylthiocholine by acetylcholinesterase produces thiocholine, which reacts with 5,5′-dithio-bis-(2-nitrobenzoic acid) to produce 5-thio-2-nitrobenzoic acid. 5-thio-2-nitrobenzoic acid has a strong absorbance at 412 nm. The intensity of absorbance at this wavelength is directly proportional to the concentration of bound conjugate, which is in turn is directly proportional to the concentration of sPLA2 present (Absorbance a [AChE:Fab′ conjugate] α [sPLA2]). During the development step, the plate is shaken, preferably in the dark. In certain embodiments the development time for the assay is 0.5 to 3 hours, preferably 1 to 1.5 hours. At the end of the development period, the high sPLA2 standards should have greater yellow color development than the zero standards. Absorbance of each well is measured at 400-420 nm using a micro-well plate reader. In certain embodiments, absorbance is measured at about 405 nm.
Absorbance readings for duplicate wells are averaged, and the relative standard deviation and % CV are calculated. Standard curve data are used to generate a four parameter curve, and quality control and test samples are measured against the appropriate standard curve (i.e., the standard curve with the same serum content). In order for a test to be considered valid, variation between duplicate wells should be no more than about 25%, and negative controls (blanks) for each standard curve should have a mean absorbance of less than about 0.3.
The method disclosed herein for measuring sPLA2 levels in serum was utilized to determine the effect of administering certain sPLA2 inhibitors on sPLA2 levels in 84 human subjects. The subjects included 24 subjects with diabetes, 32 subjects with metabolic syndrome, and 75 subjects receiving statin treatment. Subjects were administered the sPLA2 inhibitor A-002, a prodrug form of A-001, twice a day at varying dosages from 50 to 500 mg. The structures of A-002and A-001 are set forth below. At two weeks and four weeks after the first administration, sPLA2 levels were measured and compared to pre-administration baseline levels.
84 subjects with stable coronary artery disease were randomized to receive placebo or A-002 via oral administration twice a day over a four week administration period. […]

[1] = A-002 (500 mg), non-statin subgroup of ITT population
[2] = A-002 Total (all dose groups), ITT subjects exhibiting at least 3 out of 5 metabolic syndrome criteria
[3] = A-002 Total (all dose groups), non-statin subgroup of ITT population
[4] = Total (all doses), ITT population
[5] = Total (all doses), diabetes subgroup of ITT population
[6] = Total (all doses), non-diabetes subgroup of ITT population
[7] = Total (all doses), statin subgroup of ITT population

CCc1c(C(=O)C(N)=O)c2c(OCC(=O)OC)cccc2n1Cc1ccccc1 [A-002, [[3-(2-Amino-1,2-dioxoethyl)-2-ethyl-1-(phenylmethyl)-1H-indol-4-yl]oxy]acetic acid methyl ester]
sPLA2 level, Week 4, Range (A-002 (500 mg), ITT subjects exhibiting at least 3 out of 5 metabolic syndrome criteria): 0.05 to 0.10 ng/mL | sPLA2 level, Baseline, Mean [1]: 2.30 ng/mL | sPLA2 level, Baseline, Median [1]: 2.30 ng/mL | sPLA2 level, Baseline, Range [1]: 1.80 to 2.80 ng/mL | sPLA2 level, Change from baseline at week 2, Mean [1]: -2.25 ng/mL | sPLA2 level, Change from baseline at week 2, Median [1]: -2.25 ng/mL | sPLA2 level, Change from baseline at week 2, Range [1]: -2.75 to -1.75 ng/mL | sPLA2 level, Change from baseline at week 4, Mean [1]: -2.08 ng/mL | sPLA2 level, Change from baseline at week 4, Median [1]: -2.08 ng/mL | sPLA2 level, Change from baseline at week 4, Range [1]: -2.40 to -1.75 ng/mL | sPLA2 level, Week 2, Mean [1]: 0.05 ng/mL | sPLA2 level, Week 2, Median [1]: 0.05 ng/mL | sPLA2 level, Week 2, Range [1]: 0.05 to 0.05 ng/ml | sPLA2 level, Week 4, Mean [1]: 0.23 ng/mL | sPLA2 level, Week 4, Median [1]: 0.23 ng/mL | sPLA2 level, Week 4, Range [1]: 0.05 to 0.40 ng/mL | sPLA2 level, Baseline, Mean [2]: 3.17 ng/mL | sPLA2 level, Baseline, Median [2]: 2.70 ng/mL | sPLA2 level, Baseline, Range [2]: 0.05 to 8.80 ng/mL | sPLA2 level, Change from baseline at week 2, Mean [2]: -2.41 ng/mL | sPLA2 level, Change from baseline at week 2, Median [2]: -2.45 ng/mL | sPLA2 level, Change from baseline at week 2, Range [2]: −5.30 to +2.85 ng/ml | sPLA2 level, Change from baseline at week 4, Mean [2]: -2.76 ng/mL | sPLA2 level, Change from baseline at week 4, Median [2]: -2.30 ng/mL | sPLA2 level, Change from baseline at week 4, Range [2]: -6.40 to 0.00 ng/mL | sPLA2 level, Week 2, Mean [2]: 0.65 ng/mL | sPLA2 level, Week 2, Median [2]: 0.30 ng/mL | sPLA2 level, Week 2, Range [2]: 0.05 to 4.00 ng/mL | sPLA2 level, Week 4, Mean [2]: 0.43 ng/mL | sPLA2 level, Week 4, Median [2]: 0.25 ng/mL | sPLA2 level, Week 4, Range [2]: 0.05 to 2.40 ng/mL | sPLA2 level, Baseline, Mean [3]: 2.92 ng/mL | sPLA2 level, Baseline, Median [3]: 2.80 ng/mL | sPLA2 level, Baseline, Range [3]: 1.80 to 4.90 ng/mL | sPLA2 level, Change from baseline at week 2, Mean [3]: -2.13 ng/mL | sPLA2 level, Change from baseline at week 2, Median [3]: -2.00 ng/mL | sPLA2 level, Change from baseline at week 2, Range [3]: -2.75 to -1.75 ng/mL | sPLA2 level, Change from baseline at week 4, Mean [3]: -2.49 ng/mL | sPLA2 level, Change from baseline at week 4, Median [3]: -2.20 ng/mL | sPLA2 level, Change from baseline at week 4, Range [3]: -4.40 to -1.70 ng/mL | sPLA2 level, Week 2, Mean [3]: 0.58 ng/mL | sPLA2 level, Week 2, Median [3]: 0.48 ng/mL | sPLA2 level, Week 2, Range [3]: 0.05 to 1.30 ng/mL | sPLA2 level, Week 4, Mean [3]: 0.65 ng/mL | sPLA2 level, Week 4, Median [3]: 0.50 ng/mL | sPLA2 level, Week 4, Range [3]: 0.05 to 1.20 ng/mL | serum sPLA2 levels (ITT population, stable coronary artery disease, A-002 50, 100, 250 or 500 mg oral twice a day, end of weeks two and four vs baseline, dose-independent): decreased serum sPLA2 levels | sPLA2 Change from baseline at week 2, Mean [4]: -2.35 ng/mL | sPLA2 Change from baseline at week 2, Median [4]: -2.40 ng/mL | sPLA2 Change from baseline at week 2, Range [4]: −5.30 to +2.85 ng/ml | sPLA2 Change from baseline at week 4, Mean [4]: -2.53 ng/mL | sPLA2 Change from baseline at week 4, Median [4]: -2.35 ng/mL | sPLA2 Change from baseline at week 4, Range [4]: -6.40 to 0.20 ng/mL | sPLA2 level, Baseline, Mean [4]: 2.99 ng/mL | sPLA2 level, Baseline, Median [4]: 2.70 ng/mL | sPLA2 level, Baseline, Range [4]: 0.05 to 8.80 ng/mL | sPLA2 level, Week 2, Mean [4]: 0.60 ng/mL | sPLA2 level, Week 2, Median [4]: 0.30 ng/mL | sPLA2 level, Week 2, Range [4]: 0.05 to 4.40 ng/mL | sPLA2 level, Week 4, Mean [4]: 0.51 ng/mL | sPLA2 level, Week 4, Median [4]: 0.35 ng/mL | sPLA2 level, Week 4, Range [4]: 0.05 to 2.40 ng/mL | sPLA2 Change from baseline at week 2, Mean [5]: -2.03 ng/mL | sPLA2 Change from baseline at week 2, Median [5]: -2.40 ng/mL | sPLA2 Change from baseline at week 2, Range [5]: −4.80 to +2.85 ng/ml | sPLA2 Change from baseline at week 4, Mean [5]: -2.31 ng/mL | sPLA2 Change from baseline at week 4, Median [5]: -1.90 ng/mL | sPLA2 Change from baseline at week 4, Range [5]: −5.70 to +0.20 ng/ml | sPLA2 level, Baseline, Mean [5]: 2.91 ng/mL | sPLA2 level, Baseline, Median [5]: 2.75 ng/mL | sPLA2 level, Baseline, Range [5]: 0.05 to 6.00 ng/mL | sPLA2 level, Week 2, Mean [5]: 0.67 ng/mL | sPLA2 level, Week 2, Median [5]: 0.50 ng/mL | sPLA2 level, Week 2, Range [5]: 0.05 to 2.90 ng/mL | sPLA2 level, Week 4, Mean [5]: 0.53 ng/mL | sPLA2 level, Week 4, Median [5]: 0.50 ng/mL | sPLA2 level, Week 4, Range [5]: 0.05 to 1.50 ng/mL | sPLA2 Change from baseline at week 2, Mean [6]: -2.48 ng/mL | sPLA2 Change from baseline at week 2, Median [6]: -2.40 ng/mL | sPLA2 Change from baseline at week 2, Range [6]: -5.30 to -0.40 ng/mL | sPLA2 Change from baseline at week 4, Mean [6]: -2.63 ng/mL | sPLA2 Change from baseline at week 4, Median [6]: -2.45 ng/mL | sPLA2 Change from baseline at week 4, Range [6]: -6.40 to -0.55 ng/mL | sPLA2 level, Baseline, Mean [6]: 3.02 ng/mL | sPLA2 level, Baseline, Median [6]: 2.60 ng/mL | sPLA2 level, Baseline, Range [6]: 0.60 to 8.80 ng/mL | sPLA2 level, Week 2, Mean [6]: 0.57 ng/mL | sPLA2 level, Week 2, Median [6]: 0.30 ng/mL | sPLA2 level, Week 2, Range [6]: 0.05 to 4.40 ng/mL | sPLA2 level, Week 4, Mean [6]: 0.51 ng/mL | sPLA2 level, Week 4, Median [6]: 0.30 ng/mL | sPLA2 level, Week 4, Range [6]: 0.05 to 2.40 ng/mL | sPLA2 Change from baseline at week 2, Mean [7]: -2.37 ng/mL | sPLA2 Change from baseline at week 2, Median [7]: -2.43 ng/mL | sPLA2 Change from baseline at week 2, Range [7]: −5.30 to +2.85 ng/ml | sPLA2 Change from baseline at week 4, Mean [7]: -2.53 ng/mL | sPLA2 Change from baseline at week 4, Median [7]: -2.43 ng/mL | sPLA2 Change from baseline at week 4, Range [7]: −6.40 to +0.20 ng/ml | sPLA2 level, Baseline, Mean [7]: 3.00 ng/mL | sPLA2 level, Baseline, Median [7]: 2.70 ng/mL | sPLA2 level, Baseline, Range [7]: 0.05 to 8.80 ng/mL | sPLA2 level, Week 2, Mean [7]: 0.60 ng/mL | sPLA2 level, Week 2, Median [7]: 0.30 ng/mL | sPLA2 level, Week 2, Range [7]: 0.05 to 4.40 ng/mL | sPLA2 level, Week 4, Mean [7]: 0.50 ng/mL | sPLA2 level, Week 4, Median [7]: 0.30 ng/mL | sPLA2 level, Week 4, Range [7]: 0.05 to 2.40 ng/mL | sPLA2 levels compared to pre-administration baseline (all subject subpopulations (diabetic/non-diabetic, metabolic syndrome/non-metabolic syndrome, statin/non-statin), all dosages 50 to 500 mg twice a day, two and four weeks): substantial decrease in sPLA2 levels | serum sPLA2 levels (diabetic and non-diabetic subpopulations, A-002 50-500 mg oral twice a day, weeks two and four): decrease was observed | serum sPLA2 levels (metabolic syndrome subpopulation, A-002 50-500 mg oral twice a day, weeks two and four): decrease was observed | serum sPLA2 levels (statin and non-statin subpopulations, A-002 50-500 mg oral twice a day, weeks two and four): decrease was observed
